Laboratory results from article PMC7608132 (Acta Pharmacologica Sinica, 2020).
Read-outs that look alike come from different tables or passages of the source.

Assays:
[1] = rifampin; cited from earlier work
[2] = HLMs, 3 µM alflutinib, selective inhibitor at the concentration of b13

## O=c1cc(-c2ccccc2)oc2c1ccc1ccccc12 [α-Naphthoflavone, α-naphthoflavone]
CYP enzymes in HLMs
  Effect on the formation of alflutinib metabolites: no significant effects

## Nn1nnc2ccccc21 [ABT, 1-aminobenzotriazole]
CYP enzymes in HLMs
  Suppression of the production of AST5902: 98%

## CO[C@H]1/C=C/O[C@@]2(C)Oc3c(C)c(O)c4c(O)c(c(/C=N/N5CCN(C)CC5)c(O)c4c3C2=O)NC(=O)/C(C)=C\C=C\[C@H](C)[C@H](O)[C@@H](C)[C@@H](O)[C@@H](C)[C@H](OC(C)=O)[C@@H]1C [Rifampin]
[1]
  In vivo concentrations: 10 to 18 µM

## O=c1c(O)c(-c2ccc(O)c(O)c2)oc2cc(O)cc(O)c12 [Quercetin, quercetin]
CYP enzymes in HLMs; [2]
  Suppression of the production of AST5902: 68%

## Nc1ccc(S(=O)(=O)Nc2ccnn2-c2ccccc2)cc1 [Sulfaphenazole, sulfaphenazole]
CYP enzymes in HLMs; [2]
  Suppression of the production of AST5902: 45%

## Cc1ncsc1CCCl [chlormethiazole]
CYP enzymes in HLMs; HLMs, α-naphthoflavone 2 µM, chlormethiazole 24 µM
  Effect on the formation of alflutinib metabolites: no significant effects
